Test results as given in paper PMC12817916, “A small-molecule HSP90 inhibitor, NVP-HSP990, alleviates rotavirus infection” (Journal of Virology, 2025).
Where two headings read alike, the source gives them in different places. Blank lines part the entries; values can stand above or below the molecule they belong to.

Tests used:
RV SA11 (G3P[2]) strain = assay: In vitro assay of RV replication inhibition (PFA); assay type: cell-based, Rotavirus; details: Rotavirus
Method: (§1) For analysis of effects of different […] on RV replication in vitro, 10,000 MA104 cells, 30,000 Caco-2 cells, and 80,000 HT-29 cells in 100 µL complete DMEM medium were seeded in 96-well plates and cultured at 37°C and 5% CO2 for 24 h. Then the cells were infected with RV Wa or SA11 strains (MOI = 1 (PFU/cell)) for 1 h. After removing the viruses and washing cells two times with DMEM, 100 µL DMEM containing the indicated concentrations of drugs was added to each well, and the plates were incubated at 37°C and 5% CO2. At 24 h p.i., the infected cells and culture medium were collected, frozen/thawed twice, and subjected to centrifugation at 1,000 × g for 3 min at room temperature. Then, the supernatant was subjected to analysis of viral load by PFA. […] Dose-response data (drug concentrations as x-axis and normalized inhibition percentages as y-axis) were fitted to a dose-response inhibition model ([Inhibitor] vs normalized response – Variable slope). […] Model adequacy was validated using goodness-of-fit metrics (R^2 ≥ 0.95), 95% confidence intervals, and residual distribution analysis.
(§2) Wa/SA11 strains were titrated by PFA, which was carried out as described (3) with some modification. Briefly, confluent monolayers of MA104 cells in 24-well tissue culture plates were infected with 100 µL supernatants containing infectious RV particles which were serially diluted (10^1, 10^2, 10^3, and 10^4) with DMEM containing 1 µg/mL trypsin and penicillin (10,000 U/mL)-streptomycin (5 µg/mL) (DMEM-T) for 1 h at 37°C. Then 400 µL agarose overlay (0.8% agarose in 1×DMEM-T) was added and the plates were incubated at 37℃ and 5% CO2 for 5 days. The cells in each well were fixed by 1 mL 4% paraformaldehyde (Sangon Biotech, China) overnight (> 12 h) at room temperature. Then, the paraformaldehyde and agarose were removed and the monolayers were stained with 0.5 ml of a 1% (v/v) crystal violet (Sangon Biotech, China) diluted in distilled water for 10 min at room temperature. Then, the plates were drained and dried, and the plaques were enumerated. As the EDIM strain is not able to grow in cell culture, it was titrated by qPCR analysis as described (4) with EDIM VP6 gene as the target.

RV Wa (G1P[8]) strain = assay: In vitro assay of RV replication inhibition (PFA); assay type: cell-based, Rotavirus; details: Rotavirus
Method: as §1, §2

Caco-2 cells = assay: Cytotoxicity assay (CCK-8); assay type: cell-based, Human; details: 24 h
Method: (§3) To evaluate the cytotoxicity of different HSP90 inhibitors in vitro, 10,000 MA104 cells, 30,000 Caco-2 cells, and 80,000 HT-29 cells in 100 µL complete DMEM medium were seeded in 96-well plates and cultured at 37°C and 5% CO2 for 24 h to reach about 100% confluence, and a cell-free control was also set. After removing the initial medium, 100 µL of complete DMEM medium containing the indicated concentrations of drugs was added to each well, and the plates were incubated at 37°C and 5% CO2. Twenty-four hours later, the drug-containing medium was replaced with 100 µL fresh complete DMEM medium plus 10 µL 5 mM CCK-8 reagent (Beyotime, China), and OD450 absorbance of each well was detected 3 h later using a microplate reader (Gene Company Limited, China). Relative cell viability rate = OD450 (drug-treated cells − cell-free control) / OD450 (0 µM drug-treated cells − cell-free control).
(§4) The 50% cytotoxic concentration (CC50) values were determined by nonlinear regression (curve fit) analysis in GraphPad Prism 9.0 (GraphPad Software). Dose-response data (drug concentrations as X-axis and normalized cell viability percentages as Y-axis) were fitted to a Dose-response Inhibition model ("[Inhibitor] vs. normalized response-Variable slope"). The curve was constrained to a bottom limit of 0% viability. The CC50 value was automatically calculated as the X-intercept at Y=50%. Model adequacy was validated using goodness-of-fit metrics (R²≥0.95), 95% confidence intervals, and residual distribution analysis. Final CC50 values were derived from three independent biological replicates and reported as mean ± SEM.

HT-29 cells = assay: Cytotoxicity assay (CCK-8); assay type: cell-based, Human; details: 24 h
Method: as §3, §4

[1] = Cytotoxicity assay (CCK-8); assay type: cell-based, Human; details: human
Method: as §3, §4

[2] = Cytotoxicity assay (CCK-8); assay type: cell-based, Rhesus monkey; details: rhesus monkey
Method: as §3, §4

MA104 cells = assay: Cytotoxicity assay (CCK-8); assay type: cell-based, Rhesus monkey; details: 24 h
Method: as §3, §4

[3] = Caco-2, 24 h, read-out: IC50 (Fig 1B plot)
[4] = HT-29, 24 h, read-out: IC50 (Fig 1B plot)
[5] = MA104, 24 h, read-out: IC50 (Fig 1B plot)

SMILES: C=CCNC1=C2C[C@@H](C)C[C@H](OC)[C@H](O)[C@@H](C)/C=C(\C)[C@H](OC(N)=O)[C@@H](OC)/C=C\C=C(/C)C(=O)NC(=CC1=O)C2=O [17-AAG, 17-allylamino-17-demethoxygeldanamycin]
IC50 (RV SA11 (G3P[2]) strain; Caco-2, 24 h): 116 ± 33.3 nM
IC50 (RV SA11 (G3P[2]) strain; [3]): 113 nM
IC50 (RV SA11 (G3P[2]) strain; HT-29, 24 h): 54 ± 7.14 nM
IC50 (RV SA11 (G3P[2]) strain; [4]): 53.9 nM
IC50 (RV SA11 (G3P[2]) strain; MA104, 24 h): 3.52 ± 0.6 nM
IC50 (RV SA11 (G3P[2]) strain; [5]): 3.51 nM
IC50 (RV Wa (G1P[8]) strain; Caco-2, 24 h): 162 ± 34.2 nM
IC50 (RV Wa (G1P[8]) strain; [3]): 172 nM
IC50 (RV Wa (G1P[8]) strain; HT-29, 24 h): 26.4 ± 20.5 nM
IC50 (RV Wa (G1P[8]) strain; [4]): 21.9 nM
IC50 (RV Wa (G1P[8]) strain; MA104, 24 h): 6.81 ± 2.18 nM
IC50 (RV Wa (G1P[8]) strain; [5]): 6.58 nM
CC50 (Caco-2 cells; Caco-2 cells, CCK-8, read-out: CC50): 28600 ± 9730 nM
CC50 (HT-29 cells; HT-29 cells, CCK-8, read-out: CC50): 20700 ± 6030 nM
CC50 at 24 h ([1]; Caco-2 cells, CCK-8): < 40000 nM
CC50 at 24 h ([1]; HT-29 cells, 24 h, CCK-8, read-out: CC50): < 40000 nM
CC50 at 24 h ([2]; MA104 cells, 24 h, CCK-8, read-out: CC50): < 40000 nM
CC50 (MA104 cells; MA104 cells, CCK-8, read-out: CC50): 23300 ± 6720 nM

IC50 (RV SA11 (G3P[2]) strain; SA11 strain in Caco-2 cells, MOI = 1, 24 h p.i., PFA, read-out: IC50): 83.8 ± 20.6 nM
IC50 (RV SA11 (G3P[2]) strain; SA11 strain in Caco-2 cells, representative experiment, 24 h, PFA, read-out: IC50 (Fig 1B plot)): 83.7 nM
IC50 (RV SA11 (G3P[2]) strain; SA11 strain in HT-29 cells, MOI = 1, 24 h p.i., PFA, read-out: IC50): 48.2 ± 34.8 nM
IC50 (RV SA11 (G3P[2]) strain; SA11 strain in HT-29 cells, representative experiment, 24 h, PFA, read-out: IC50 (Fig 1B plot)): 41.6 nM
IC50 (RV SA11 (G3P[2]) strain; SA11 strain in MA104 cells, MOI = 1, 24 h p.i., PFA, read-out: IC50): 3.01 ± 0.77 nM
IC50 (RV SA11 (G3P[2]) strain; SA11 strain in MA104 cells, representative experiment, 24 h, PFA, read-out: IC50 (Fig 1B plot)): 2.94 nM
IC50 (RV Wa (G1P[8]) strain; Wa strain in Caco-2 cells, MOI = 1, 24 h p.i., PFA, read-out: IC50): 91.7 ± 6.95 nM
IC50 (RV Wa (G1P[8]) strain; Wa strain in Caco-2 cells, representative experiment, 24 h, PFA, read-out: IC50 (Fig 1B plot)): 92 nM
IC50 (RV Wa (G1P[8]) strain; Wa strain in HT-29 cells, MOI = 1, 24 h p.i., PFA, read-out: IC50): 16.5 ± 4.41 nM
IC50 (RV Wa (G1P[8]) strain; Wa strain in HT-29 cells, representative experiment, 24 h, PFA, read-out: IC50 (Fig 1B plot)): 16.1 nM
IC50 (RV Wa (G1P[8]) strain; Wa strain in MA104 cells, MOI = 1, 24 h p.i., PFA, read-out: IC50): 10.5 ± 3.57 nM
IC50 (RV Wa (G1P[8]) strain; Wa strain in MA104 cells, representative experiment, 24 h, PFA, read-out: IC50 (Fig 1B plot)): 10.1 nM
SMILES: COC1=C2C[C@@H](C)C[C@H](OC)[C@H](O)[C@@H](C)/C=C(\C)[C@H](OC(N)=O)[C@@H](OC)/C=C\C=C(/C)C(=O)NC(=CC1=O)C2=O [GA, geldanamycin]
CC50 (Caco-2 cells; human): 20000 ± 3070 nM
CC50 (HT-29 cells; human): 29200 ± 5060 nM
CC50 at 24 h ([1]; CC50): < 40000 nM
CC50 at 24 h ([2]; CC50): < 40000 nM
CC50 (MA104 cells; rhesus monkey): 26600 ± 5550 nM
